Test results as given in US20160095855A1, “USE OF A POLYMORPH OF FLIBANSERIN FOR TREATING DISEASE” (Sprout Pharmaceuticals, Inc., priority 2001, published 2016).

Tests used:
5-HT1A receptor = biological target: T1, 5-HT1A receptor (Homo sapiens, UniProt P08908); conditions: qualitative background statement; cited from earlier work
T1 sequence (P08908 1-422): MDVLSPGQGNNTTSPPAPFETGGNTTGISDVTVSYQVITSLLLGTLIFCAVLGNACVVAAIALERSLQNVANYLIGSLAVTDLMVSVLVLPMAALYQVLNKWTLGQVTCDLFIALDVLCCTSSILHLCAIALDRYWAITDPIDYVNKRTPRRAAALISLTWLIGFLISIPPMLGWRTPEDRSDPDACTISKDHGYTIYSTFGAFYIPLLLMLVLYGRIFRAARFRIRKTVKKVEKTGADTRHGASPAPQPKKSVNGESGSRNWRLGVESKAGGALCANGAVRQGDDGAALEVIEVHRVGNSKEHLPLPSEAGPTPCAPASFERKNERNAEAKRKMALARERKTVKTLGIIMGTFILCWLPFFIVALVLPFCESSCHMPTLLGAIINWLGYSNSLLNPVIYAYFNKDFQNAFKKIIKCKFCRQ

5-HT2-receptor = conditions: qualitative background statement; cited from earlier work
[1] = stability under mechanical stress produced by grinding; assay type: physicochemical; conditions: solid state, crystalline modification of free base

Structure (SMILES) | affinity for the 5-HT1A receptor (5-HT1A receptor) | affinity for the 5-HT2-receptor (5-HT2-receptor) | stability under the effects of mechanical stress produced by grinding [1]
O=c1[nH]c2ccccc2n1CCN1CCN(c2cccc(C(F)(F)F)c2)CC1 [Flibanserin, 1-[2-(4-(3-trifluoromethyl-phenyl)piperazin-1-yl)ethyl]-2,3-dihydro-1H-benzimidazol-2-one] | shows affinity | shows affinity | –
O=c1[nH]c2ccccc2n1CCN1CCN(c2cccc(C(F)(F)F)c2)CC1 [polymorph A, 1-[2-(4-(3-trifluoromethyl-phenyl)piperazin-1-yl)ethyl]-2,3-dihydro-1H-benzimidazol-2-one] | – | – | fulfill the aforementioned stability requirements
O=c1[nH]c2ccccc2n1CCN1CCN(c2cccc(C(F)(F)F)c2)CC1 [polymorph B, 1-[2-(4-(3-trifluoromethyl-phenyl)piperazin-1-yl)ethyl]-2,3-dihydro-1H-benzimidazol-2-one] | – | – | little stability
